Columns and labels:
[1] = Forced degradation of HCP API under stress conditions (0.1 N HCl, 0.1 N NaOH, dry heat); assay type: physicochemical; conditions: 3 different stress conditions: 0.1 N HCl, qualitative
Procedure: To develop this method, Hydrocortisone sodium phosphate API was kept under stress conditions. These stress conditions included treatment with 0.1 N HCl, 0.1 N NaOH and dry heat. This was performed to investigate the nature of API and its compatibility with the stress conditions. It also helped generate degradation products to assess the specificity of the HPLC method under development. Information on degradation products and the conditions used to generate them was used to optimize the method for better resolution of such degradation products on chromatogram. FIGS. 3A-3C show chromatograms of HCP under stress conditions.
The proportions in which the degradants formed depended on the stress condition. Stress studies performed on the API were done for qualitative purpose only.

[2] = light, strong acids and alkalies; cited from earlier work

Structure (SMILES) | forced degradation outcome (in words) [1] | stability (in words) [2]
C[C@]12CCC(=O)C=C1CC[C@@H]1[C@@H]2[C@@H](O)C[C@@]2(C)[C@H]1CC[C@]2(O)C(=O)COP(=O)([O-])[O-].[Na+].[Na+] [HCP, Hydrocortisone sodium phosphate] | formation of Hydrocortisone, other common degradants | –
C[C@]12CCC(=O)C=C1CC[C@@H]1[C@@H]2[C@@H](O)C[C@@]2(C)[C@H]1CC[C@]2(O)C(=O)CO [Hydrocortisone] | – | sensitive to light and unstable in strong acids and alkalies

From patent publication US11857555B2, “Aqueous pharmaceutical formulation of hydrocortisone sodium phosphate and monothioglycerol” (ANTARES PHARMA, INC., priority 2020, dated 2024)
